Laboratory results taken from ChEMBL document CHEMBL5357033, “Discovery of Diverse Sesquiterpenoids from Crossiella cryophila through Genome Mining and NMR Tracking” (J Nat Prod, 2024).

Experiments:
Pseudomonas syringae = experiment: Antimicrobial activity against Pseudomonas syringae ATCC-BAA-2502 assessed as reduction in microbial growth by broth microdilution method; assay type: functional
Xanthomonas oryzae = experiment: Antimicrobial activity against Xanthomonas oryzae ATCC 35933 assessed as reduction in microbial growth by broth microdilution method; assay type: functional
Staphylococcus aureus [1] = experiment: Antimicrobial activity against Staphylococcus aureus LV-B1 assessed as reduction in microbial growth by broth microdilution method; assay type: functional
Escherichia coli = experiment: Antimicrobial activity against Escherichia coli CGMCC 1.3344 assessed as reduction in microbial growth by broth microdilution method; assay type: functional
Enterococcus = experiment: Antimicrobial activity against Vancomycin-resistant Enterococci assessed as reduction in microbial growth by broth microdilution method; assay type: functional
Staphylococcus capitis = experiment: Antimicrobial activity against Staphylococcus capitis W7 assessed as reduction in microbial growth by broth microdilution method; assay type: functional
Shigella sonnei = experiment: Antimicrobial activity against Shigella sonnei ZD12 assessed as reduction in microbial growth by broth microdilution method; assay type: functional
SW480 = experiment: Anticancer activity against human SW480 cells assessed as reduction in cell viability at 40 uM measured after 48 hrs by CCK-8 method relative to control; assay type: functional
Staphylococcus aureus [2] = experiment: Antimicrobial activity against methicillin resistant Staphylococcus aureus assessed as reduction in microbial growth by broth microdilution method; assay type: functional
Bacillus subtilis = experiment: Antimicrobial activity against Bacillus subtilis ATCC 6051 assessed as reduction in microbial growth by broth microdilution method; assay type: functional
RAW264.7 [3] = experiment: Cytotoxicity against mouse RAW264.7 cells measured after 24hrs by CCK-8 method relative to control; assay type: toxicity, cell-based; set-up: concentration or dose not given beside the values; conditions: raw264.7, 24 h
RAW264.7 [4] = experiment: Antiinflammatory activity in mouse RAW264.7 assessed as reduction in LPS-induced NO production incubated for 24 hrs by Griess method relative to control; assay type: functional; set-up: concentration or dose not given beside the values
HepG2 = experiment: Anticancer activity against human HepG2 cells assessed as reduction in cell viability at 40 uM measured after 48 hrs by CCK-8 method relative to control; assay type: functional
Klebsiella pneumoniae = experiment: Antimicrobial activity against Klebsiella pneumoniae W5 assessed as reduction in microbial growth by broth microdilution method; assay type: functional
MCF7 = experiment: Anticancer activity against human MCF7 cells assessed as reduction in cell viability at 40 uM measured after 48 hrs by CCK-8 method relative to control; assay type: functional
Micrococcus luteus = experiment: Antimicrobial activity against Micrococcus luteus ATCC 4685 assessed as reduction in microbial growth by broth microdilution method; assay type: functional
A549 = experiment: Anticancer activity against human A549 cells assessed as reduction in cell viability at 40 uM measured after 48 hrs by CCK-8 method relative to control; assay type: functional
Paracidovorax avenae = experiment: Antimicrobial activity against Acidovorax avenae ATCC 19307 assessed as reduction in microbial growth by broth microdilution method; assay type: functional
MDA-MB-231 = experiment: Anticancer activity against human MDA-MB-231 cells assessed as reduction in cell viability at 40 uM measured after 48 hrs by CCK-8 method relative to control; assay type: functional

In the case of `CC1=C[C@@H]2[C@@H](C(C)C)CC[C@@](C)(O)[C@@H]2CC1=O`, the MIC (Pseudomonas syringae) is reported as > 128 µg/mL, the MIC (Xanthomonas oryzae) is reported as > 128 µg/mL and the MIC (Staphylococcus aureus [1]) is reported as > 128 µg/mL. The MIC (Escherichia coli) was > 128 µg/mL, the MIC (Enterococcus) was > 128 µg/mL and the MIC (Staphylococcus capitis) was > 128 µg/mL. For the same compound, the MIC (Shigella sonnei) was > 128 µg/mL, the Activity (SW480) was -22.26% and the MIC (Staphylococcus aureus [2]) was > 128 µg/mL. For the same compound, the MIC (Bacillus subtilis) was > 128 µg/mL, the Activity (RAW264.7 [3]) was 82.62% and the Activity (RAW264.7 [4]) was -11.3%. The Activity (HepG2) was -9.79%, the MIC (Klebsiella pneumoniae) was > 128 µg/mL and the Activity (MCF7) was 13.45%. For the same compound, the MIC (Micrococcus luteus) was > 128 µg/mL, the Activity (A549) was 8.55% and the MIC (Paracidovorax avenae) was > 128 µg/mL. The Activity (MDA-MB-231) was 20.55%.
In the case of `C[C@@H]1C(=O)C[C@@H]2[C@H]3[C@H]1OC(C)(C)[C@H]3CC[C@@]2(C)O`, the MIC (Pseudomonas syringae) is reported as > 128 µg/mL, the MIC (Xanthomonas oryzae) is reported as > 128 µg/mL and the MIC (Staphylococcus aureus [1]) is reported as > 128 µg/mL. The MIC (Escherichia coli) was > 128 µg/mL, the MIC (Enterococcus) was > 128 µg/mL and the MIC (Staphylococcus capitis) was > 128 µg/mL. For the same compound, the MIC (Shigella sonnei) was > 128 µg/mL, the Activity (SW480) was 13.67% and the MIC (Staphylococcus aureus [2]) was > 128 µg/mL. The MIC (Bacillus subtilis) was > 128 µg/mL, the Activity (RAW264.7 [3]) was 91.87% and the Activity (RAW264.7 [4]) was -1.87%. For the same compound, the Activity (HepG2) was -1.81%, the MIC (Klebsiella pneumoniae) was > 128 µg/mL and the Activity (MCF7) was 9.07%. The MIC (Micrococcus luteus) was > 128 µg/mL, the Activity (A549) was 0.67% and the MIC (Paracidovorax avenae) was > 128 µg/mL. It also gave an Activity (MDA-MB-231) of -3.76%.
`C[C@H]1CC[C@@H](O)[C@]2(C)CC[C@@H](C(C)(C)O)[C@H](O)[C@@H]12` was tested, and the MIC (Pseudomonas syringae) was > 128 µg/mL, the MIC (Xanthomonas oryzae) was > 128 µg/mL and the MIC (Staphylococcus aureus [1]) was > 128 µg/mL. For the same compound, the MIC (Escherichia coli) was > 128 µg/mL, the MIC (Enterococcus) was > 128 µg/mL and the MIC (Staphylococcus capitis) was > 128 µg/mL. The MIC (Shigella sonnei) was > 128 µg/mL, the Activity (SW480) was 10.33% and the MIC (Staphylococcus aureus [2]) was > 128 µg/mL. For the same compound, the MIC (Bacillus subtilis) was > 128 µg/mL, the Activity (RAW264.7 [3]) was 88.18% and the Activity (RAW264.7 [4]) was 3.3%. For the same compound, the Activity (HepG2) was -2.3%, the MIC (Klebsiella pneumoniae) was > 128 µg/mL and the Activity (MCF7) was 5.53%. The MIC (Micrococcus luteus) was > 128 µg/mL, the Activity (A549) was 0.97% and the MIC (Paracidovorax avenae) was > 128 µg/mL. It also gave an Activity (MDA-MB-231) of -2.4%.
`C[C@H]1CC[C@@H]2[C@H]3[C@H]1OC(C)(C)[C@@H]3CC[C@@]2(C)O` (relative stereo) was tested, and the MIC (Pseudomonas syringae) was > 128 µg/mL, the MIC (Xanthomonas oryzae) was > 128 µg/mL and the MIC (Staphylococcus aureus [1]) was > 128 µg/mL. For the same compound, the MIC (Escherichia coli) was > 128 µg/mL, the MIC (Enterococcus) was > 128 µg/mL and the MIC (Staphylococcus capitis) was > 128 µg/mL. The MIC (Shigella sonnei) was > 128 µg/mL, the Activity (SW480) was -11.92% and the MIC (Staphylococcus aureus [2]) was > 128 µg/mL. The MIC (Bacillus subtilis) was > 128 µg/mL, the Activity (RAW264.7 [3]) was 94.77% and the Activity (RAW264.7 [4]) was -7.88%. For the same compound, the Activity (HepG2) was -8.24%, the MIC (Klebsiella pneumoniae) was > 128 µg/mL and the Activity (MCF7) was 14.7%. For the same compound, the MIC (Micrococcus luteus) was > 128 µg/mL, the Activity (A549) was 12.03% and the MIC (Paracidovorax avenae) was > 128 µg/mL. The Activity (MDA-MB-231) was 4.18%.
For `CN(C)[C@@H]1C(O)=C(C(N)=O)C(=O)[C@@]2(O)C(O)=C3C(=O)c4c(O)cccc4[C@@](C)(O)[C@H]3C[C@@H]12` [TETRACYCLINE], the MIC (Pseudomonas syringae) was > 128 µg/mL, the MIC (Xanthomonas oryzae) was 8 µg/mL and the MIC (Staphylococcus aureus [1]) was 0.5 µg/mL. It also gave an MIC (Escherichia coli) of 2 µg/mL, an MIC (Enterococcus) of 2 µg/mL and an MIC (Staphylococcus capitis) of 4 µg/mL. The MIC (Shigella sonnei) was 8 µg/mL, the MIC (Staphylococcus aureus [2]) was 4 µg/mL and the MIC (Bacillus subtilis) was 2 µg/mL. For the same compound, the MIC (Klebsiella pneumoniae) was > 128 µg/mL, the MIC (Micrococcus luteus) was 2 µg/mL and the MIC (Paracidovorax avenae) was 4 µg/mL.
With `C/C1=C\CC/C(C=O)=C\[C@H]2[C@H](C[C@H]1O)C2(C)C` the MIC (Pseudomonas syringae) was > 128 µg/mL, the MIC (Xanthomonas oryzae) was > 128 µg/mL and the MIC (Staphylococcus aureus [1]) was > 128 µg/mL. The MIC (Escherichia coli) was > 128 µg/mL, the MIC (Enterococcus) was > 128 µg/mL and the MIC (Staphylococcus capitis) was > 128 µg/mL. The MIC (Shigella sonnei) was > 128 µg/mL, the Activity (SW480) was -28.68% and the MIC (Staphylococcus aureus [2]) was > 128 µg/mL. The MIC (Bacillus subtilis) was > 128 µg/mL, the Activity (RAW264.7 [3]) was 89.61% and the Activity (RAW264.7 [4]) was 1.33%. The Activity (HepG2) was -8.84%, the MIC (Klebsiella pneumoniae) was > 128 µg/mL and the Activity (MCF7) was 1.32%. The MIC (Micrococcus luteus) was > 128 µg/mL, the Activity (A549) was -2.39% and the MIC (Paracidovorax avenae) was > 128 µg/mL. It also gave an Activity (MDA-MB-231) of -11.44%.
`CC1(C)[C@H]2[C@@H]1CC[C@@]1(C)[C@H](O)CC[C@](O)(CO)[C@H]21` was tested, and the MIC (Pseudomonas syringae) was > 128 µg/mL, the MIC (Xanthomonas oryzae) was > 128 µg/mL and the MIC (Staphylococcus aureus [1]) was > 128 µg/mL. The MIC (Escherichia coli) was > 128 µg/mL, the MIC (Enterococcus) was > 128 µg/mL and the MIC (Staphylococcus capitis) was > 128 µg/mL. For the same compound, the MIC (Shigella sonnei) was > 128 µg/mL, the Activity (SW480) was 7.24% and the MIC (Staphylococcus aureus [2]) was > 128 µg/mL. The MIC (Bacillus subtilis) was > 128 µg/mL, the Activity (RAW264.7 [3]) was 81.69% and the Activity (RAW264.7 [4]) was -3.05%. For the same compound, the Activity (HepG2) was 3.99%, the MIC (Klebsiella pneumoniae) was > 128 µg/mL and the Activity (MCF7) was 11.1%. For the same compound, the MIC (Micrococcus luteus) was > 128 µg/mL, the Activity (A549) was 0.34% and the MIC (Paracidovorax avenae) was > 128 µg/mL. For the same compound, the Activity (MDA-MB-231) was 27.39%.
